Our source for the Ki values is patent publication US9493411B2 (AbbVie Inc., priority 2013, dated 2016).

One experiment addresses T1, BRD4 (BDII_E352-M457) (Homo sapiens, UniProt O60885).
T1 construct: made in house
Description: TR-FRET bromodomain binding assay, BRD4 second bromodomain. The note with it: His-tagged BD2, Alexa647-labeled probe 30 nM; Ki calculated from IC50. On the procedure: (§1) A time-resolved fluorescence resonance energy transfer (TR-FRET) assay was used to determine the affinities of compounds of the Examples listed in Table 1 for each bromodomain of BRD4. His-tagged first (BD1: amino acids K57-E168) and second (BD2: amino acids E352-E168) bromodomains of BRD4 were expressed and purified. An Alexa647-labeled BET-inhibitor was used as the fluorescent probe in the assay.
(§2) Compound dilution series were prepared in DMSO via a 3-fold serial dilution from 2.5 mM to 42 nM. Compounds were then diluted 6:100 in assay buffer (20 mM Sodium Phosphate, pH 6.0, 50 mM NaCl, 1 mM Ethylenediaminetetraacetic acid disodium salt dihydrate, 0.01% Triton X-100, 1 mM DL-Dithiothreitol) to yield 3× working solutions. Six microliters (μL) of the working solution was then transferred to white, low-volume assay plates (Costar #3673). A 1.5× assay mixture containing His-tagged bromodomain, Europium-conjugated anti-His antibody (Invitrogen PV5596) and the Alexa-647-conjugated probe molecule was also prepared. Twelve μL of this solution were added to the assay plate to reach a final volume of 18 μL. The final concentration of 1× assay buffer contains 2% DMSO, 50 μM-0.85 nM compound, 8 nM His-tagged bromodomain, 1 nM Europium-conjugated anti-His-tag antibody and 100 nM or 30 nM probe (for BDI or BDII, respectively). After a one-hour incubation at room temperature, TR-FRET ratios were determined using an Envision multilabel plate reader (Ex 340, Em […]).
(§3) TR-FRET data were normalized to the means of 24 no-compound controls (“high”) and 8 controls containing 1 μM un-labeled probe (“low”). Percent inhibition was plotted as a function of compound concentration and the data were fit with the 4 parameter logistic equation to obtain IC50s. Inhibition constants (Ki) were calculated from the IC50s, probe Kd and probe concentration. Typical Z′ values were between 0.65 and 0.75. The minimum significant ratio was determined to evaluate assay reproducibility (Eastwood et al., (2006) J Biomol Screen, 11: 253-261). The MSR was determined to be 2.03 for BDI and 1.93 for BDII, and a moving MSR (last six run MSR overtime) for both BDI and BDII was typically <3.

The target of a further experiment is T2, BRD4 (BDI_K57-E168) (Homo sapiens, UniProt O60885).
T2 construct: BD1: amino acids K57-E168; made in house
Kind of experiment: TR-FRET bromodomain binding assay, BRD4 first bromodomain. The settings on record: His-tagged BD1, Alexa647-labeled probe 100 nM; Ki calculated from IC50. On the procedure:
as §1, §2, §3

In the case of `Cc1[nH]c(-c2cccc([N+](=O)[O-])c2)cc1C(N)=O` [Example 3, 2-methyl-5-(3-nitrophenyl)-1H-pyrrole-3-carboxamide], the values for the Ki at BRD4 (BDII_E352-M457) and at BRD4 (BDI_K57-E168) were 7.2 µM and 2.33 µM, respectively.
For `Cc1[nH]c(-c2cccc(N)c2)cc1C(N)=O` [Example 4, 5-(3-aminophenyl)-2-methyl-1H-pyrrole-3-carboxamide], the figures for the Ki on BRD4 (BDII_E352-M457) and on BRD4 (BDI_K57-E168) were 4.44 µM and 5.19 µM, respectively.
As for `CC(=O)Nc1cccc(-c2cc(C(N)=O)c(C)[nH]2)c1` [Example 5, 5-[3-(acetylamino)phenyl]-2-methyl-1H-pyrrole-3-carboxamide], the Ki (usually a measure of affinity in units of concentration, obtained from inhibition or displacement) on BRD4 (BDII_E352-M457) was 6.43 µM; at BRD4 (BDI_K57-E168), 8.09 µM.
Turning to `Cc1[nH]c(-c2cccc(NS(C)(=O)=O)c2)cc1C(N)=O` [Example 6, 2-methyl-5-{3-[(methylsulfonyl)amino]phenyl}-1H-pyrrole-3-carboxamide], the Ki at BRD4 (BDII_E352-M457) was 5.01 µM; at BRD4 (BDI_K57-E168), 3.16 µM.
The matching figures for `Cc1[nH]c(-c2ccc([N+](=O)[O-])cc2)cc1C(N)=O` [Example 7, 2-methyl-5-(4-nitrophenyl)-1H-pyrrole-3-carboxamide]: 6.89 µM and 1.63 µM.
The matching figures for `Cc1[nH]c(-c2ccc(N)cc2)cc1C(N)=O` [Example 8, 5-(4-aminophenyl)-2-methyl-1H-pyrrole-3-carboxamide]: 3.72 µM and 2.68 µM.
Turning to `Cc1[nH]c(-c2ccc(NS(C)(=O)=O)cc2)cc1C(N)=O` [Example 9, 2-methyl-5-{4-[(methylsulfonyl)amino]phenyl}-1H-pyrrole-3-carboxamide], the inhibitory constant (Ki) at BRD4 (BDII_E352-M457) was 3.14 µM; at BRD4 (BDI_K57-E168), 2.88 µM.
For `CC(=O)Nc1ccc(-c2cc(C(N)=O)c(C)[nH]2)cc1` [Example 10, 5-[4-(acetylamino)phenyl]-2-methyl-1H-pyrrole-3-carboxamide], in that order: 5.57 µM and 3.47 µM.
Consider `Cc1[nH]c(-c2ccccc2NCc2ccc(Cl)cc2)cc1C(N)=O` [Example 11, 5-{2-[(4-chlorobenzyl)amino]phenyl}-2-methyl-1H-pyrrole-3-carboxamide], for which the Ki was 2.51 µM at BRD4 (BDII_E352-M457) and 2.87 µM at BRD4 (BDI_K57-E168).
The matching figures for `Cc1[nH]c(-c2ccccc2NCc2cc(Br)cs2)cc1C(N)=O` [Example 15, 5-(2-{[(4-bromothiophen-2-yl)methyl]amino}phenyl)-2-methyl-1H-pyrrole-3-carboxamide]: 2.31 µM and 2.58 µM.
Regarding `COc1cc(CNc2ccccc2-c2cc(C(N)=O)c(C)[nH]2)cc(OC)c1OC` [Example 16, 2-methyl-5-{2-[(3,4,5-trimethoxybenzyl)amino]phenyl}-1H-pyrrole-3-carboxamide], the Ki on BRD4 (BDII_E352-M457) is 2.02 µM; at BRD4 (BDI_K57-E168) it was 1.18 µM.
Turning to `Cc1cc(CNc2ccccc2-c2cc(C(N)=O)c(C)[nH]2)oc1C` [Example 20, 5-(2-{[(4,5-dimethylfuran-2-yl)methyl]amino}phenyl)-2-methyl-1H-pyrrole-3-carboxamide], the inhibition constant Ki on BRD4 (BDII_E352-M457) is 3.29 µM; on BRD4 (BDI_K57-E168) it was 1.19 µM.
The matching figures for `Cc1[nH]c(-c2ccccc2NCc2cc(C(F)(F)F)cc(C(F)(F)F)c2)cc1C(N)=O` [Example 21, 5-(2-{[3,5-bis(trifluoromethyl)benzyl]amino}phenyl)-2-methyl-1H-pyrrole-3-carboxamide]: 21.5 µM and 9.69 µM.
As for `Cc1[nH]c(-c2ccccc2NCc2c(F)cccc2F)cc1C(N)=O` [Example 22, 5-{2-[(2,6-difluorobenzyl)amino]phenyl}-2-methyl-1H-pyrrole-3-carboxamide], the Ki is 3.66 µM on BRD4 (BDII_E352-M457) and 2.98 µM at BRD4 (BDI_K57-E168).
In the case of `Cc1[nH]c(-c2ccccc2NCc2ccc(F)cc2)cc1C(N)=O` [Example 23, 5-{2-[(4-fluorobenzyl)amino]phenyl}-2-methyl-1H-pyrrole-3-carboxamide], the Ki was 3.53 µM on BRD4 (BDII_E352-M457) and 3.52 µM at BRD4 (BDI_K57-E168).
With `Cc1ccccc1CNc1ccccc1-c1cc(C(N)=O)c(C)[nH]1` [Example 24, 2-methyl-5-{2-[(2-methylbenzyl)amino]phenyl}-1H-pyrrole-3-carboxamide], the Ki is 1.19 µM on BRD4 (BDII_E352-M457) and 1.06 µM at BRD4 (BDI_K57-E168).
Consider `Cc1cccc(CNc2ccccc2-c2cc(C(N)=O)c(C)[nH]2)c1` [Example 25, 2-methyl-5-{2-[(3-methylbenzyl)amino]phenyl}-1H-pyrrole-3-carboxamide], for which the Ki on BRD4 (BDII_E352-M457) was 2.16 µM; at BRD4 (BDI_K57-E168), 1.26 µM.
`Cc1[nH]c(-c2ccccc2NCC2CC2)cc1C(N)=O` [Example 26, 5-{2-[(cyclopropylmethyl)amino]phenyl}-2-methyl-1H-pyrrole-3-carboxamide]: the Ki on BRD4 (BDII_E352-M457) was 7.53 µM; on BRD4 (BDI_K57-E168), 0.86 µM.
For `Cc1[nH]c(-c2ccccc2NCc2ccc(C(F)(F)F)cc2)cc1C(N)=O` [Example 28, 2-methyl-5-(2-{[4-(trifluoromethyl)benzyl]amino}phenyl)-1H-pyrrole-3-carboxamide], in that order: 13.6 µM and 9.45 µM.
For `Cc1ccc(CNc2ccccc2-c2cc(C(N)=O)c(C)[nH]2)cc1` [Example 29, 2-methyl-5-{2-[(4-methylbenzyl)amino]phenyl}-1H-pyrrole-3-carboxamide], in that order: 4.41 µM and 2.77 µM.
For `COc1ccc(CNc2ccccc2-c2cc(C(N)=O)c(C)[nH]2)cc1` [Example 30, 5-{2-[(4-methoxybenzyl)amino]phenyl}-2-methyl-1H-pyrrole-3-carboxamide], in that order: 3.48 µM and 3.06 µM.
As to `Cc1[nH]c(-c2ccccc2NCc2ccc(C#N)cc2)cc1C(N)=O` [Example 31, 5-{2-[(4-cyanobenzyl)amino]phenyl}-2-methyl-1H-pyrrole-3-carboxamide], the Ki was 6.23 µM at BRD4 (BDII_E352-M457) and 1.4 µM on BRD4 (BDI_K57-E168).
In the case of `Cc1[nH]c(-c2ccccc2NCc2ccc(Br)cc2)cc1C(N)=O` [Example 32, 5-{2-[(4-bromobenzyl)amino]phenyl}-2-methyl-1H-pyrrole-3-carboxamide], the inhibitory constant (Ki) on BRD4 (BDII_E352-M457) is 10.3 µM; on BRD4 (BDI_K57-E168), 5.17 µM.
For `Cc1[nH]c(-c2ccccc2NCc2ccc(Cl)c(Cl)c2)cc1C(N)=O` [Example 33, 5-{2-[(3,4-dichlorobenzyl)amino]phenyl}-2-methyl-1H-pyrrole-3-carboxamide], in that order: 13.1 µM and 9.63 µM.
As for `Cc1[nH]c(-c2ccccc2NCc2ccccc2Cl)cc1C(N)=O` [Example 34, 5-{2-[(2-chlorobenzyl)amino]phenyl}-2-methyl-1H-pyrrole-3-carboxamide], the results for the inhibition constant (Ki) at BRD4 (BDII_E352-M457) and at BRD4 (BDI_K57-E168) were 3.45 µM and 1.4 µM, respectively.
The matching figures for `Cc1[nH]c(-c2ccccc2NCc2cccc(Cl)c2)cc1C(N)=O` [Example 35, 5-{2-[(3-chlorobenzyl)amino]phenyl}-2-methyl-1H-pyrrole-3-carboxamide]: 3.26 µM and 2.7 µM.
The matching figures for `Cc1[nH]c(-c2ccccc2NCC2CCCCC2)cc1C(N)=O` [Example 36, 5-{2-[(cyclohexylmethyl)amino]phenyl}-2-methyl-1H-pyrrole-3-carboxamide]: 1.16 µM and 0.521 µM.
`Cc1[nH]c(-c2ccccc2NCc2ccc(N(C)C)cc2)cc1C(N)=O` [Example 37, 5-(2-{[4-(dimethylamino)benzyl]amino}phenyl)-2-methyl-1H-pyrrole-3-carboxamide]: the Ki at BRD4 (BDII_E352-M457) was 3.58 µM; on BRD4 (BDI_K57-E168) it was 4.68 µM.
